IC50 data for 26 compounds are collected here from US20260102383A1, “LPAR1 Inhibitors” (AbbVie Inc., priority 2024, published 2026).

T1 sequence (Q92633 whole entry): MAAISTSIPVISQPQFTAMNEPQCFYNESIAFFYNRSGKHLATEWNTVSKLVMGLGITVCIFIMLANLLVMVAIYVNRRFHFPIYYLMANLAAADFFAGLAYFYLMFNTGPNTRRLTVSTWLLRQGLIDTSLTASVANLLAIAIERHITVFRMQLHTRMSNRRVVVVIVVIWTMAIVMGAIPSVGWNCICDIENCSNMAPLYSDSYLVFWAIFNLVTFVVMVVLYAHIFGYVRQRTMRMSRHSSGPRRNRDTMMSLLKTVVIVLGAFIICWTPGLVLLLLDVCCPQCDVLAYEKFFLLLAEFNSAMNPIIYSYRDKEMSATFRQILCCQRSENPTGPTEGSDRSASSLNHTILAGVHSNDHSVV

This assay addresses T1, human LPAR1 (Homo sapiens, UniProt Q92633).
T1 construct: host or cells: TangoEDG2-bla U2OS cells
Kind of assay: Arrestin assay (Arrestin Reporter EDG2-bla U2OS), inhibition of LPA-stimulated signal. The class given is cell-based. The following applies: TangoEDG2-bla U2OS cells expressing human LPAR1; 0.25 μM LPA; read-out: Arrestin Reporter EDG2-bla U2OS Human Merged IC50. The procedure, abridged: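 TangoEDG2-bla U2OS cells (1×10^4/well, plated 18-20 h) were preincubated 1 h at 37 °C with compound (12-point, 3-fold, 10 μM to 0.00006 μM), then stimulated 3 h with 0.25 μM LPA final. LiveBLAzer FRET B/G 460/530 nm emission ratio gave % inhibition; IC50 from 4-parameter variable-slope fit.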
`CC(C)c1ccnn1C1(C(=O)Nc2ccc(Cl)cc2OC(F)F)CCN(C[C@]2(C(=O)O)CC[C@](C)(O)CC2)CC1` [Compound 175, (1r,4r)-1-[[4-[[4-chloro-2-(difluoromethoxy)phenyl]carbamoyl]-4-(5-isopropylpyrazol-1-yl)-1-piperidyl]methyl]-4-hydroxy-4-methyl-cyclohexanecarboxylic acid]: the IC50 (as a rule, the concentration that inhibits the measured activity by half) was determined as 122 nM.

`CC1(C)OCc2cnn(C3(C(=O)Nc4ccc(Cl)cc4OC(F)F)CCN(C[C@H](C(=O)O)C4CCOCC4)CC3)c21` [Compound 176, (2R)-3-[4-[[4-chloro-2-(difluoromethoxy)phenyl]carbamoyl]-4-(6,6-dimethyl-4H-furo[3,4-c]pyrazol-1-yl)-1-piperidyl]-2-tetrahydropyran-4-yl-propanoic acid]: the IC50 worked out at 95.5 nM.

As for `CC(C)c1ccnn1C1(C(=O)Nc2ccc(Cl)cc2OC(F)F)CCN(CC2(C(=O)O)[C@@H]3COC[C@@H]32)CC1` (stereo partly drawn) [Compound 177, (1S,5R)-6-[[4-[[4-chloro-2-(difluoromethoxy)phenyl]carbamoyl]-4-(5-isopropylpyrazol-1-yl)-1-piperidyl]methyl]-3-oxabicyclo[3.1.0]hexane-6-carboxylic acid], the IC50 came to 92.5 nM.

For the compound `COC1CN([C@@H](CN2CCC(C(=O)Nc3ccc(Cl)cc3OC(F)F)(n3nccc3C(C)C)CC2)C(=O)O)C1` [Compound 178, (2S)-3-[4-[[4-chloro-2-(difluoromethoxy)phenyl]carbamoyl]-4-(5-isopropylpyrazol-1-yl)-1-piperidyl]-2-(3-methoxyazetidin-1-yl)propanoic acid], the IC50 is 123 nM.

For the compound `CC(C)c1ccnn1C1(C(=O)Nc2ccc(Cl)cc2OC(F)F)CCN(Cc2c(C(=O)O)nnn2C)CC1` [Compound 179, 5-[[4-[[4-chloro-2-(difluoromethoxy)phenyl]carbamoyl]-4-(5-isopropylpyrazol-1-yl)-1-piperidyl]methyl]-1-methyl-triazole-4-carboxylic acid], the IC50 amounted to 174 nM.

As for `CC(C)c1ccnn1C1(C(=O)Nc2ccc(Cl)cc2OC(F)F)CCN(CC2(C(=O)O)C[C@@H](C)O[C@@H](C)C2)CC1` (stereo partly drawn) [Compound 180, (2R,6S)-4-[[4-[[4-chloro-2-(difluoromethoxy)phenyl]carbamoyl]-4-(5-isopropylpyrazol-1-yl)-1-piperidyl]methyl]-2,6-dimethyl-tetrahydropyran-4-carboxylic acid], the IC50 was 48.8 nM.

Consider `COC1(C(=O)O)CC(N2CCC(C(=O)Nc3ccc(Cl)cc3OC(F)F)(n3nccc3C(C)C)CC2)C1` (centres unmarked) [Compound 181, 3-[4-[[4-chloro-2-(difluoromethoxy)phenyl]carbamoyl]-4-(5-isopropylpyrazol-1-yl)-1-piperidyl]-1-methoxy-cyclobutanecarboxylic acid], for which the IC50 amounted to 87.7 nM.

With `CC(C)c1ccnn1C1(C(=O)Nc2ccc(Cl)cc2OC(F)F)CCN(C[C@@H](CO)C(=O)O)CC1` [Compound 182], the IC50 is 36.3 nM.

On to `CC(C)c1ccnn1C1(C(=O)Nc2ccc(Cl)cc2OC(F)F)CCN(C[C@H](CO)C(=O)O)CC1` [Compound 183, (2R)-2-[[4-[[4-chloro-2-(difluoromethoxy)phenyl]carbamoyl]-4-(5-isopropylpyrazol-1-yl)-1-piperidyl]methyl]-3-hydroxy-propanoic acid], for which the IC50 was found to be 39.4 nM.

With `CO[C@H]1CC[C@H]([C@@H](CN2CCC(C(=O)Nc3ccc(Cl)cc3OC(F)F)(n3nccc3C(C)C)CC2)C(=O)O)CC1` [Compound 187, (2S)-3-[4-[[4-chloro-2-(difluoromethoxy)phenyl]carbamoyl]-4-(5-isopropylpyrazol-1-yl)-1-piperidyl]-2-((1r,4S)-4-methoxycyclohexyl) propanoic acid], the IC50 was determined as 75.9 nM.

In the case of `COCCC(CN1CCC(C(=O)Nc2ccc(Cl)cc2OC(F)F)(n2ncc(F)c2C(C)C)CC1)C(=O)O` (centres unmarked) [Compound 188, 2-[[4-[[4-chloro-2-(difluoromethoxy)phenyl]carbamoyl]-4-(4-fluoro-5-isopropyl-pyrazol-1-yl)-1-piperidyl]methyl]-4-methoxy-butanoic acid], the IC50 stood at 38.3 nM.

For the compound `Cc1cnn(CC(CN2CCC(C(=O)Nc3ccc(Cl)cc3OC(F)F)(n3nccc3C(C)C)CC2)C(=O)O)c1` (centres unmarked) [Compound 189, 2-[[4-[[4-chloro-2-(difluoromethoxy)phenyl]carbamoyl]-4-(5-isopropylpyrazol-1-yl)-1-piperidyl]methyl]-3-(4-methylpyrazol-1-yl)propanoic acid], the IC50 was determined as 31.2 nM.

As to `COCC[C@@H](CN1CCC(C(=O)Nc2ccc(Cl)cc2OC(F)F)(n2ncc(F)c2C(C)C)CC1)C(=O)O` [Compound 190, (2S)-2-[[4-[[4-chloro-2-(difluoromethoxy)phenyl]carbamoyl]-4-(4-fluoro-5-isopropyl-pyrazol-1-yl)-1-piperidyl]methyl]-4-methoxy-butanoic acid], the IC50 is 37.9 nM.

In the case of `COCC[C@H](CN1CCC(C(=O)Nc2ccc(Cl)cc2OC(F)F)(n2ncc(F)c2C(C)C)CC1)C(=O)O` [Compound 191, (2R)-2-[[4-[[4-chloro-2-(difluoromethoxy)phenyl]carbamoyl]-4-(4-fluoro-5-isopropyl-pyrazol-1-yl)-1-piperidyl]methyl]-4-methoxy-butanoic acid], the IC50 was found to be 33.4 nM.

As for `COc1cnn(CC(CN2CCC(C(=O)Nc3ccc(Cl)cc3OC(F)F)(n3nccc3C(C)C)CC2)C(=O)O)c1` (centres unmarked) [Compound 193, 2-[[4-[[4-chloro-2-(difluoromethoxy)phenyl]carbamoyl]-4-(5-isopropylpyrazol-1-yl)-1-piperidyl]methyl]-3-(4-methoxypyrazol-1-yl)propanoic acid], the IC50 was found to be 31.3 nM.

Take `CC(C)c1ccnn1C1(C(=O)Nc2ccc(Cl)cc2OC(F)F)CCN(C[C@@H](C(=O)O)[C@H]2C[C@@H](C)O[C@@H](C)C2)CC1` [Compound 195, (25)-3-[4-[[4-chloro-2-(difluoromethoxy)phenyl]carbamoyl]-4-(5-isopropylpyrazol-1-yl)-1-piperidyl]-2-[(2R,4r,6S)-2,6-dimethyltetrahydropyran-4-yl]propanoic acid]: the IC50 stood at 67.6 nM.

As for `CC(C)c1ccnn1C1(C(=O)Nc2ccc(Cl)cc2OC(F)F)CCN(CC(C(=O)O)C2COCCOC2)CC1` (centres unmarked) [Compound 196, 3-[4-[[4-chloro-2-(difluoromethoxy)phenyl]carbamoyl]-4-(5-isopropylpyrazol-1-yl)-1-piperidyl]-2-(1,4-dioxepan-6-yl)propanoic acid], the IC50 came to 34.7 nM.

For the compound `COC1(C(=O)O)CC(N2CCC(C(=O)Nc3ccc(Cl)cc3OC(F)F)(n3ncc(F)c3C(C)C)CC2)C1` (centres unmarked) [Compound 199, 3-[4-[[4-chloro-2-(difluoromethoxy)phenyl]carbamoyl]-4-(4-fluoro-5-isopropyl-pyrazol-1-yl)-1-piperidyl]-1-methoxy-cyclobutanecarboxylic acid], the IC50 was 40.4 nM.

Turning to `COC1CC(C(CN2CCC(C(=O)Nc3ccc(Cl)cc3OC(F)F)(n3nccc3C(C)C)CC2)C(=O)O)C1` (centres unmarked) [Compound 200, 3-[4-[[4-chloro-2-(difluoromethoxy)phenyl]carbamoyl]-4-(5-isopropylpyrazol-1-yl)-1-piperidyl]-2-(3-methoxycyclobutyl) propanoic acid], the IC50 was 37.7 nM.

Turning to `COc1cnn(C[C@@H](CN2CCC(C(=O)Nc3ccc(Cl)cc3OC(F)F)(n3nccc3C(C)C)CC2)C(=O)O)c1` [Compound 201, (2R)-2-[[4-[[4-chloro-2-(difluoromethoxy)phenyl]carbamoyl]-4-(5-isopropylpyrazol-1-yl)-1-piperidyl]methyl]-3-(4-methoxypyrazol-1-yl)propanoic acid], the IC50 was 30.6 nM.

As for `COc1cnn(C[C@H](CN2CCC(C(=O)Nc3ccc(Cl)cc3OC(F)F)(n3nccc3C(C)C)CC2)C(=O)O)c1` [Compound 202, (2S)-2-[[4-[[4-chloro-2-(difluoromethoxy)phenyl]carbamoyl]-4-(5-isopropylpyrazol-1-yl)-1-piperidyl]methyl]-3-(4-methoxypyrazol-1-yl)propanoic acid], the IC50 was 46 nM.

In the case of `CC(C)c1ccnn1C1(C(=O)Nc2ccc(Cl)cc2OC(F)F)CCN(CC(C(=O)O)C(C)O)CC1` (centres unmarked) [Compound 203, 2-[[4-[[4-chloro-2-(difluoromethoxy)phenyl]carbamoyl]-4-(5-isopropylpyrazol-1-yl)-1-piperidyl]methyl]-3-hydroxy-butanoic acid], the IC50 was found to be 66.6 nM.

As to `CO[C@]1(C(=O)O)C[C@@H](N2CCC(C(=O)Nc3ccc(Cl)cc3OC(F)F)(n3ncc(F)c3C(C)C)CC2)C1` [Compound 204, (1r,3r)-3-[4-[[4-chloro-2-(difluoromethoxy)phenyl]carbamoyl]-4-(4-fluoro-5-isopropyl-pyrazol-1-yl)-1-piperidyl]-1-methoxy-cyclobutanecarboxylic acid], the IC50 was found to be 46.9 nM.

As to `COC[C@H](CN1CCC(C(=O)Nc2ccc(Cl)cc2OC(F)F)(n2ncc(Cl)c2C(C)C)CC1)C(=O)O` [Compound 205, (2S)-2-[[4-[[4-chloro-2-(difluoromethoxy)phenyl]carbamoyl]-4-(4-chloro-5-isopropyl-pyrazol-1-yl)-1-piperidyl]methyl]-3-methoxy-propanoic acid], the IC50 was 17.9 nM.

For the compound `COC[C@@H](CN1CCC(C(=O)Nc2ccc(Cl)cc2OC(F)F)(n2ncc(Cl)c2C(C)C)CC1)C(=O)O` [Compound 206, (2R)-2-[[4-[[4-chloro-2-(difluoromethoxy)phenyl]carbamoyl]-4-(4-chloro-5-isopropyl-pyrazol-1-yl)-1-piperidyl]methyl]-3-methoxy-propanoic acid], the IC50 came to 16.9 nM.

For `COCC[C@H](CN1CCC(C(=O)Nc2ccc(Cl)cc2OC(F)F)(n2ncc3c2C(C)(C)OC3)CC1)C(=O)O` [Compound 207, (2R)-2-[[4-[[4-chloro-2-(difluoromethoxy)phenyl]carbamoyl]-4-(6,6-dimethyl-4H-furo[3,4-c]pyrazol-1-yl)-1-piperidyl]methyl]-4-methoxy-butanoic acid], the IC50 worked out at 93.7 nM.
